From patent US20260216139A1, “METHOD FOR TREATING NEUROLOGICAL DISEASES THROUGH GLIAL PRUNING REGULATION” (Fred Hutchinson Cancer Center, priority 2022, published 2026)

System: C. elegans
Test: Effects of exposure to drugs on glial pruning: number of engulfed AFD neuron fragments in AMsh glia
Format: in vivo
Settings: for suppression of defects, judged by the number of engulfed fragments in glia: pdr-1 single or pdr-1; for number of engulfed fragments of neuron within glia: pdr-1 mutant animals, upon drug exposure
Experimental: C. elegans were cultured as known to one of skill in the art. Bristol N2 strain was used as wild type. For all experiments, animals were raised at 20° C. for at least two generations without starvation, picked as L4 larvae onto fresh plate, and assayed 1 day later unless otherwise noted. For analysis of glial engulfment, animals were crossed to the strain dnals13, an integrated transgene bearing gcy-23: GFP recombineered fosmid outcrossed to Bristol N2 four times. To control environmental variations, worms were raised from egg-lay in a humidity and temperature-controlled environment until imaging. Worms were staged at the L4 stage using vulval anatomy. Day 1 adult animals were staged at the L4 stage and then grown for approximately 24 more hours (unless otherwise stated) in the controlled environment. Worms were imaged and glial engulfment was analyzed as described in the methods below.
Worms were immobilized with 40 mM sodium azide. Images were collected on a Deltavision® Elite RoHS wide-field deconvolution system with Ultimate Focus® (GE), a PlanApo 60×/1.42 NA or OLY 100×/1.40 NA oil-immersion objective, and a DV Elite CMOS Camera. Images of the AFD puncta in the region of the AMsh were taken at 100× using FITC with 100% transmission and 0.0405 ms exposure with a reference image taken at 5% POL in the middle of the sample. For worms expressing an extrachromosomal array tagged with mCherry, images were also taken using an A594 filter with 0.02 ms exposure to ensure expression of the array in the cell of interest. Images were then deconvolved and cropped to 1024×1024 in the area of interest. Next, images were processed using FIJI®. All images were converted to 8-bit and brightness and contrast were set with a minimum of 0 and a maximum of 50. Next, a rectangle is drawn around the region of the AMsh adjacent to, but not including, the AFD cell body and excluding any area along the AFD process. Next, the image is cropped to this region, and the tool “3D Objects Counter” is run with the following settings: threshold=35; size min.=5 max.=7225848; exclude objects side. This number of puncta is then verified by eye and recorded.
Data and statistics were either graphed and analyzed using Prism9 or by using R. Statistical analysis in R was conducted using the open-source data visualization package ggplot2. Data is represented in a boxplot with each point representing the number of puncta engulfed within the cell body of one AMsh glia in a single worm. Dots represent the biological replicate in which the individual worm was imaged unless otherwise specified to represent genotype.
4 mL standard C. elegans nematode growth medium (NGM) was aliquoted into 35 mm Petri dishes and stored at 4 degrees Celsius. Plates were warmed to room temperature and seeded with 100 μL of OP50 and dried overnight. Plates were then spotted with 100 μL of diluted SP600125 (in DMSO), Apocynin (in DMSO), or EHop-016 (in DMSO) for a final concentration of 0.5% or 1% DMSO (as labeled) and a final concentration of the treatment drug of 50 μM (unless otherwise specified). Spot treatment was allowed to dry before L1 staged C. elegans were transferred onto the plate. Worms were then imaged approximately 2 days later. Worms were staged at this time by vulval anatomy, body size, and the presence or absence of eggs. […] At this time, worms were imaged, and glial engulfment levels were analyzed.

COc1cc(C(C)=O)ccc1O (racemic) [Apocynin, acetovanillone]
suppression of defects, judged by the number of engulfed fragments in glia (pink-1 double mutant animals): suppress

O=[N+]([O-])c1ccc(O)c([N+](=O)[O-])c1 [DNP]
number of engulfed fragments of neuron within glia: no change

CCn1c2ccccc2c2cc(Nc3ccnc(NCCCN4CCOCC4)n3)ccc21 (racemic) [EHOP-016]
pruning (pdr-1, pink-1 double mutant animals, 10 μM): increased
pdr-1 defect (pruning) (pdr-1 lesion animals (FIG. 21C right), 10 μM): increased
suppression of defects, judged by the number of engulfed fragments in glia (pink-1 double mutant animals): did not suppress
pruning (wild type animals, 10 μM): increase

CC(C)C[C@@H](C=O)NC(=O)[C@H](CC(C)C)NC(=O)[C@H](CC(C)C)NC(=O)OCc1ccccc1 (racemic) [MG-132]
number of engulfed fragments of neuron within glia: reduction

CO[C@H]1C[C@@H]2CC[C@@H](C)[C@@](O)(O2)C(=O)C(=O)N2CCCC[C@H]2C(=O)O[C@H]([C@H](C)C[C@@H]2CC[C@@H](O)[C@H](OC)C2)CC(=O)[C@H](C)/C=C(\C)[C@@H](O)[C@@H](OC)C(=O)[C@H](C)C[C@H](C)/C=C/C=C/C=C/1C [rapamycin]
number of engulfed fragments of neuron within glia: no change
